Results reported in article PMC12631912, “A Multifunctional Molecular Probe for Multimodal Imaging‐Guided Potent Photothermal/Photodynamic Therapy of Endometriosis” (Advanced Science, 2025).

Assays:
[1] = T1 relaxivity (r1) of probe solutions by MRI; type: physicochemical; conditions: in PBS, 3.0 T MRI scanner, room temperature; slope of 1/T1 versus Gd concentration; n = 3 regions of interest
Description: An inversion recovery spin echo sequence was executed with the parameters: repetition time (TR) = 5.27 ms, echo time (TE) = 2.29 ms, field of view (FOV) = 160 mm × 160 mm, acquisition matrix = 336 × 336, acquisition voxel = 0.48 mm × 0.48 mm × 2 mm, slice thickness = 2 mm, reconstruction matrix = 672 × 672, reconstruction voxel = 0.24 mm × 0.24 mm × 2 mm, number of flip angles = 4 (3°, 6°, 9°, 13°), and NSA = 1. Regions of interest (ROI, average size 10 mm^2) were analyzed to acquire the T1 relaxation times. The r 1 was then calculated based on the slope of the linear plot between 1/T1 and Gd concentration, determined through linear least‐squares regression analysis.

[2] = ROS generation in solution with DPBF indicator under 808 nm laser; type: physicochemical; conditions: C ICG = 10 µg mL^−1 in methanol, DPBF absorbance at 410 nm, 808 nm laser 1.0 W cm^−2, within 10 min
Description: The generation of ROS was quantified using DPBF as a probe. […] The gradual decrease in the UV absorption of DPBF was monitored using a UV–vis spectrophotometer, and the correlation between the UV absorbance values and the laser exposure time was recorded.

Ishikawa cells [3] = experiment: Intracellular ROS generation, DCFH-DA, flow cytometry; type: cell-based; conditions: C ICG = 20 µg mL^−1, 4 h, + laser (808 nm, 1.0 W cm^−2, 5 min)
Description: DCFH‐DA was utilized to evaluate the intracellular ROS production induced by molecular probes under laser irradiation. Specifically, the cells (1 × 10^4 per well) were seeded onto confocal dishes and incubated overnight at 37 °C. […] Following this, the cells were carefully rinsed three times with fresh PBS. Subsequently, the cells were irradiated with an 808 nm laser (1.0 W cm^− ^2, 5 min). Intracellular ROS levels were then visualized and analyzed using a CLSM.
Additionally, a quantitative assessment of intracellular ROS production was performed using flow cytometry under the same conditions as the above experimental conditions. […] The cells were then trypsinized and harvested. After exposure to an 808 nm laser (1.0 W cm^− ^2, 5 min), the collected cells were analyzed on an Attune NxT flow cytometer (Invitrogen, USA). The resulting data was analyzed with NovoExpress 1.4.0 software (Agilent, USA).

EESCs = experiment: In vitro photothermal/photodynamic therapy, CCK-8 viability after laser; type: cell-based, human; conditions: CCK-8, 2 h incubation, 808 nm, 1.0 W cm^−2, 5 min, concentration of the quoted value not stated (range 2.5 to 50 µg mL^−1 ICG), mean ± SD, n = 4
Description: (§1) Ishikawa cells and EESCs were seeded in a 96‐well plate at a density of 1 × 10^4 cells per well and allowed to adhere overnight. […] Following this incubation, the cells were irradiated with an 808 nm laser (1.0 W cm^−2, 5 min). The viability of cells was measured using the CCK‐8 assay.

Ishikawa cells [4] = experiment: as above; type: cell-based; conditions: CCK-8, 2 h incubation, 808 nm, 1.0 W cm^−2, 5 min, concentration of the quoted value not stated (range 2.5 to 50 µg mL^−1 ICG), mean ± SD, n = 4
Description: as §1

EMS lesions [5] = experiment: In vivo photoacoustic imaging of EMS lesions; set-up: species or system BALB/c nude mice; conditions: EMS nude mice, ICG 4 µg g^−1 i.v., imaging to 48 h; n = 3
Description: PAI was conducted using a TomoWave LOIS‐3D series photoacoustic imaging system before injection and at 30 min, 5 h, 24 h, and 48 h post‐injection. Photoacoustic image processing and analysis were conducted using LOIS View 3D software and ImageJ 1.53e. ROIs were manually delineated on axial photoacoustic images to quantify lesion signal intensity (SI).

EMS lesions [6] = experiment: In vivo T1-weighted MRI of EMS lesions; set-up: species or system Wistar female rats; conditions: EMS rats, 4.5 mg Gd per kg i.v., 30 min and 5 h post-injection, 3.0 T
Description: Prior to the imaging procedure, the rats were anesthetized through intraperitoneal injection of 1% sodium pentobarbital at a dosage of 45 mg kg^−1. Following anesthesia, the rats were positioned inside a 3.0 T MRI scanner sourced from the First Hospital of Sun Yat‐sen University.
Prior to drug administration, the rats underwent T 1‐weighted imaging using the fast spin‐echo sequence with the following parameters: TR = 400 ms; TE = 12 ms; FOV = 80 mm × 80 mm; matrix size = 672 × 672; voxel size = 0.24 mm × 0.24 mm; slice thickness = 1 mm; flip angle = 150°; and NSA = 5.
T 1‐weighted imaging using the fast spin‐echo sequence was repeated at 30 min and 5 h post‐injection, respectively, with adjusted parameters: TR = 425 ms; TE = 12 ms; FOV = 80 mm × 80 mm; matrix size = 384 × 384; voxel size = 0.42 mm × 0.42 mm; slice thickness = 1 mm; flip angle = 150°; and NSA = 7.

endometriotic lesions = experiment: In vivo anti-EMS efficacy, autologous transplantation model; set-up: species or system Wistar female rats; conditions: EMS rats, i.v. every 3 days, six times, 808 nm 1.0 W cm^−2 10 min 1 h post-administration; n = 4
Description: Mice were injected with different formulations via the tail vein every 3 days until euthanasia, with an ICG dose of 3 mg kg^−1. For groups receiving NIR laser irradiation, the procedure was conducted 1 h post‐administration with a power of 1.0 W cm^− ^2 for 10 min. Mouse body weights were recorded every 3 days, and xenograft growth was monitored using a vernier caliper. EMS rats (n = 4) underwent the same treatment strategy after 28 days of autotransplantation, with body weight changes monitored every 3 days. After 18 days of treatment, rats were euthanized for autograft size measurement. Nude mice were euthanized after 18 days for graft extraction, followed by H&E staining and TUNEL assay. Briefly, sections were deparaffinized, hydrated, stained with H&E, and visualized under an optical microscope.

Row | Substance | T 1 relaxivities (r 1) [1] [mM⁻¹ s⁻¹] | reduction in DPBF absorbance (ROS generation) [2] | intracellular ROS, normalized fluorescence intensity (DCFH-DA) (Ishikawa cells [3]) [%] | cell viability after laser irradiation (EESCs) [%] | cell viability after laser irradiation (Ishikawa cells [4]) [%] | PA signal in lesions over time (EMS lesions [5]) | T 1-weighted signal intensity at the lesion site (EMS lesions [6]) | inhibition of lesion growth, probe + laser (endometriotic lesions)
1 | c(RGDyK)‐ICG‐lys‐DTPA@Gd (head to tail) [cRGD‐ILD, targeting theranostic probe integrating cRGD peptide, ICG fragment and DTPA@Gd complex] | 4.85 | ≈ 58% | 94.2 | 30.27 ± 2.02 | 23.8 ± 1.36 | sustained elevated PA signal intensities at 5 and 24 h | notable enhancement | superior efficacy in inhibiting lesion growth compared to the other groups
2 | ICG‐lys‐DTPA@Gd [ILD] | 5.37 | ~56% | 88.54 | 55.35 ± 1.1 | 48.41 ± 1.74 | rapid signal attenuation | no significant increase | superior efficacy in inhibiting lesion growth compared to the other groups
